{"source": "patent US20040110774A1", "about": "“Methods and formulations of using A1 adenosine receptor antagonists and P2x purinoceptor antagonists for the treatment and prevention of immune system disorders” (priority 2001, published 2004)", "origin": "cited, not measured here", "key": {"A1 adenosine receptor": {"biological_target": "T1, A1 adenosine receptor (Homo sapiens, UniProt P30542)", "T1 sequence (P30542 1-326)": "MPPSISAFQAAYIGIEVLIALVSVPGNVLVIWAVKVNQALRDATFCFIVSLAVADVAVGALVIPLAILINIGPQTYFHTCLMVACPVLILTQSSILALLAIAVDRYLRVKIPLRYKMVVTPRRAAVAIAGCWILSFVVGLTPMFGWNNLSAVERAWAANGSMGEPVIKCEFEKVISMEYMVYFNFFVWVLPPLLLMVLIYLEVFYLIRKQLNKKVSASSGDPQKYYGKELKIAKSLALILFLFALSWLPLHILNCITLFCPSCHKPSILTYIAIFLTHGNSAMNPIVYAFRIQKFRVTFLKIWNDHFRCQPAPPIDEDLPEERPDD", "conditions": "in tissues"}, "RAW 264.7 macrophages": {"tested_on": "RAW 264.7 macrophages", "conditions": "LPS-stimulated RAW 264.7 macrophages"}}}
{"smiles": "CCCn1c(=O)c2[nH]c(C3CCCC3)nc2n(CCC)c1=O", "note": "[DPCPX, 1,3-dipropyl-8-cyclopentylxanthine]", "values": [{"measurement": "nonspecific binding", "setting": "A1 adenosine receptor", "result": "less than 1%"}]}
{"smiles": "Cc1nc(N=Nc2ccc(S(=O)(=O)O)cc2S(=O)(=O)O)c(COP(=O)(O)O)c(C=O)c1O", "note": "[PPADS, pyridoxal-phosphate-6-azophenyl-2′,4′-disulphonic acid]", "values": [{"measurement": "effect of LPS on the expression of iNOS", "setting": "iNOS", "result": "prevent the effect of LPS on the expression of iNOS"}]}
{"smiles": "Nc1ncnc2c1ncn2[C@@H](C=O)O[C@@H](C=O)COP(=O)(O)OP(=O)(O)OP(=O)(O)O", "note": "[o-ATP, Periodate oxidized adenosine 5′-triphosphate]", "values": [{"measurement": "NF-kappa-B-like binding activity", "setting": "RAW 264.7 macrophages", "result": "inhibit NF-kappa-B-like binding activity"}, {"measurement": "effects of LPS on nitric oxide (NO) production", "setting": "RAW 264.7 macrophages", "result": "inhibit the effects of LPS on nitric oxide (NO) production"}, {"measurement": "expression of inducible nitric oxide synthase (iNOS)", "setting": "RAW 264.7 macrophages", "result": "inhibit the expression of inducible nitric oxide synthase (iNOS)"}]}
